Series [1] has as its target T1, PTHR (Homo sapiens, UniProt Q03431).
T1 sequence (Q03431 27-593): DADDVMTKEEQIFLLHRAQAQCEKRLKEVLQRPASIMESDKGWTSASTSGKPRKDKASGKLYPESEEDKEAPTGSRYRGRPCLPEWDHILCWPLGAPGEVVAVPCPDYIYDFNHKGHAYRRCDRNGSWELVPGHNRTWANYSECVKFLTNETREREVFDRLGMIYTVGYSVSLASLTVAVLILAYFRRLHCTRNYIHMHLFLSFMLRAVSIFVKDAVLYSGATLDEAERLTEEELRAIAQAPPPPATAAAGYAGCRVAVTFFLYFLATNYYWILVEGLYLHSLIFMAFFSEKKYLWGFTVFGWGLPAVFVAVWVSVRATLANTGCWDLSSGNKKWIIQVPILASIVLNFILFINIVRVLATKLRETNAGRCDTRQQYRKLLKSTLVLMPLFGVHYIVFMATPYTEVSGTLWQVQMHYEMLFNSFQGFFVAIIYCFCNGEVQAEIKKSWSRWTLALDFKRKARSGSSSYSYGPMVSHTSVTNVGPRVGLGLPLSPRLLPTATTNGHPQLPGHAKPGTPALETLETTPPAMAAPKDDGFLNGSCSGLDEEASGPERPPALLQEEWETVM
The conditions noted are these: cited from earlier work.

Series [2] has as its target b2-adrenergic receptor (b2AR) (Homo sapiens, UniProt P07550). Nature of the series: cAMP production mediated by b2AR agonist isoproterenol. The class given is cell-based. To be noted: in response to isoproterenol. A general note: cAMP levels reflect the balance of adenylyl cyclase and phosphodiesterase activity.
Series [3] concerns the target vasopressin type 2 receptor (V2R) (Homo sapiens, UniProt P30518). Description: vasopressin-mediated cAMP production. The class given is cell-based.
Series [4] deals with T2, human PTH type 1 receptor (hPTHR) (Homo sapiens, UniProt Q03431).
T2 construct: expressed in transfected cells
T2 sequence (Q03431 27-593): T1 sequence (Q03431 27-593)
Description: Concentration-response curves for cAMP (GloSensor) by PTH with Pitt molecules. The series is classed as cell-based. The conditions noted are these: range of Pitt concentrations.

The target of series [5] is T3, PTHR association with G proteins (mGs, mGq) (Homo sapiens, UniProt Q03431).
T3 construct: expressed in transfected cells
T3 sequence (Q03431 27-593): T1 sequence (Q03431 27-593)
T3 sequence (P01270 32-65 partner limits assumed): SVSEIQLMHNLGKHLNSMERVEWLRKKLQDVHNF
Description: FRET time courses of PTHR-CFP interaction with mini-Gs and mini-Gq. The conditions noted are these: PTH-induced. The class given is cell-based.

Series [6] has as its system recombinant PTHR. Description: Intracellular Ca2+ release (Fluo-4) in response to PTH. The series is classed as cell-based. The conditions noted are these: 100 nM PTH, 10 μM Pitt molecules.
Series [7] addresses T4, human PTHR mutant E180A (Homo sapiens, UniProt Q03431, E180A).
T4 construct: HA
T4 sequence (Q03431 27-593 E180A): T1 sequence (Q03431 27-593) with E154A
Description: PTH-induced cAMP signaling of receptor mutant E180A. The class given is cell-based.

The target of series [8] is T5, human PTHR mutant R181A (Homo sapiens, UniProt Q03431, R181A).
T5 construct: HA
T5 sequence (Q03431 27-593 R181A): T1 sequence (Q03431 27-593) with R155A
Nature of the series: PTH-induced cAMP signaling of receptor mutant R181A. The series is classed as cell-based.

The test system of series [9] is C57BL/6 mice.
Series [10] addresses T1, PTHR. Nature of the series: PTH-induced cAMP time courses (FRET sensor) in HEK293 cells stably expressing PTHR. The series is classed as cell-based. To be noted: for inhibition of PTH-mediated cAMP production compared with Pitt12: 10 μM compound. On the set-up: expressed in transfected cells.
Series [11] deals with T1, PTHR. Description: Radioligand receptor binding, membranes of GP-2.3 cells. More on the design: expressed in transfected cells; host or cells: HEK-293-derived GP-2.3 cells (membranes).
Setting [12] is: 20 μmol/kg, 3 h after injection.

Numbering of substitutions follows the chain as printed. Entries after “also recorded” stand apart in the source; their conditions may differ.

vasopressin type 2 receptor (V2R), sequence (P30518 whole entry, species assumed): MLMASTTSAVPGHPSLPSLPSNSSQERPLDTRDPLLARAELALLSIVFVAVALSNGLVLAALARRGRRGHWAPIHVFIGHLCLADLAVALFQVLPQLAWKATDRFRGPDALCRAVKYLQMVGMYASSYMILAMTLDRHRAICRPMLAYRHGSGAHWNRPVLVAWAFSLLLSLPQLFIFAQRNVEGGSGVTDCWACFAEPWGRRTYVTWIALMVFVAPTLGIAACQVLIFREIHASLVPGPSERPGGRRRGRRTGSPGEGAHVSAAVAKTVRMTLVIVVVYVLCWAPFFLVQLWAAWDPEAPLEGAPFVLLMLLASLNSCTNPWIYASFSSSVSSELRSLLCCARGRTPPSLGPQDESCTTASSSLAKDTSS
b2-adrenergic receptor (b2AR), sequence (P07550 whole entry, species assumed): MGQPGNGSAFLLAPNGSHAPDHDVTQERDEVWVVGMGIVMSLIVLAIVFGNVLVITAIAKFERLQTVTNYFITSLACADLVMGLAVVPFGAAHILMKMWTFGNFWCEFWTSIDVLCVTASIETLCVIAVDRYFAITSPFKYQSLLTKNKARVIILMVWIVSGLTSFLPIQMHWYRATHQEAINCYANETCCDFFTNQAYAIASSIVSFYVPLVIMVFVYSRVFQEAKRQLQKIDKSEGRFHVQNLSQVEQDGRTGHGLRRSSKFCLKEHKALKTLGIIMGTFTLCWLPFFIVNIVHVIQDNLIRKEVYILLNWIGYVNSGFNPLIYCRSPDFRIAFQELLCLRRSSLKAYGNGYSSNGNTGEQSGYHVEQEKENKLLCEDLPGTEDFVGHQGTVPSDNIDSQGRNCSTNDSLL

In the case of `CCCCn1c(O)c(C(=N)N)c(=O)n(CCCC)c1=O` [AH-3960], in series [1], the “mode of action at PTHR” value is reported as “weak agonist”.

As for `Cc1cc(N2C(=O)NC(=O)C2(C)C)cc(C)c1CCS(=O)(=O)N1CCC2(CC1)N=C(c1ccc(OC(F)(F)F)cc1)NC2=O` [PCO371], the “mode of action at PTHR” value in series [1] is listed as “orthosteric agonist”.

With `COc1ccc([C@@H]2CN(C(=O)OCC3c4ccccc4-c4ccccc43)C[C@H]2C(=O)O)cc1` [Pitt12], the “effect on β2AR-mediated cAMP production” value in series [2] is listed as “no effect”. In addition, in series [3], the “effect on vasopressin-mediated cAMP” value was “lack of effect”. In addition, the “effect on efficacy (Emax) of PTH to mediate cAMP increase” value in series [4] is “blocked cAMP production by PTH; also recorded: marked reduction in efficacy”. Moreover, in series [5], the “G proteins association with the receptor” value is “decrease in both the kinetics and magnitude”. The “PTH-mediated release of stored intracellular Ca2+” value in [6] is on record as “noticeable reduction”. The “sensitivity of E180A mutant to modulation of PTH-induced cAMP” value in [7] is “lost their ability to respond to negative modulation”. Moreover, the “sensitivity of R181A mutant to modulation of PTH-induced cAMP” value in [8] is listed as “lost their ability to respond to negative modulation”. Moreover, in [9] (setting [12]), the “serum Ca2+ (sCa2+) level, compound alone” value was “significantly reduced” and the “serum phosphate (sPi) level, compound alone” value is reported as “trend of reducing”. In addition, the “BUN/creatine ratio (kidney function and hydration status)” value in [9] (mouse, in vivo) is “lack of significant changes”. In series [10] (1 nM PTH), the “alteration of plasma membrane cAMP” value is “≈ 30%” and the “reduction of endosomal cAMP production” value is “≈ 70%”. The “effect on PTH-induced cAMP production (AUC of time course)” value in series [10] (1 nM PTH co-applied with 10 μM compound, HEK293-PTHR) is recorded as “distinguishably high potential to elicit negative effects”. In addition, in [10] (cells expressing DynK44A, PTH with Pitt coapplied), the “sustained cAMP response on blockade of receptor internalization” value was “moderately affected”. The “inhibitory binding constant (Ki), RG state” value in [11] (G-protein coupled (RG) state) was “in the μM range”. The “inhibitory binding constant (Ki), R0 state” value in [11] (G-protein uncoupled (R0) state, with GTPgS) is “in the μM range”.

For the molecule `O=C(O)[C@@H]1CN(C(=O)OCC2c3ccccc3-c3ccccc32)C[C@H]1c1ccccc1` [Pitt41], the “inhibition of PTH-mediated cAMP production compared with Pitt12” value in [10] (HEK293-PTHR) was “more efficacious than Pitt12”.

For `Cc1ccc([C@@H]2CN(C(=O)OCC3c4ccccc4-c4ccccc43)C[C@H]2C(=O)O)cc1` [Pitt42], the “inhibition of PTH-mediated cAMP production compared with Pitt12” value in series [10] (HEK293-PTHR) is “more efficacious than Pitt12”.

The record behind these values is patent US20240156779A1, “SMALL MOLECULE ALLOSTERIC MODULATORS OF CLASS B GPCR, THE PTHR, AND METHOD TO IDENTIFY THEM” (University of Pittsburgh - Of the Commonwealth System of …, priority 2021, published 2024).
